Reference: patent US5773414A, “Endothelin antagonists” (Warner-Lambert Company, priority 1997, dated 1998)
Structures can show the parent of a compound that is named as a salt. Numbered stars: 1 amine (or outer) side, 2 acyl side, 3 side chain; on linkers, the order of the positions; unused ones are H or OH. Square brackets hold non-standard residues; d marks the D form. Peptide text beside a SMILES is read from it. * marks the point of attachment. X3 = Cc1c(C)c(C)c(C[C@@H](N[*:1])C(=O)[*:2])c(C)c1C; X2 = O=C([C@@H](Cc1c2ccccc2cc2ccccc12)N[*:1])[*:2]; Acetyl(1-adamantyl) = O=C(CC12CC3CC(CC(C3)C1)C2)*; dDip = N[C@@H](C(=O)O)C(c1ccccc1)c1ccccc1; d1Nal = N[C@H](Cc1cccc2ccccc12)C(=O)O; Acetyl(3-pyridyl) = O=C(Cc1cccnc1)*; Fmoc = O=C(OCC1c2ccccc2-c2ccccc21)*; CO = O=C([*:1])[*:2]; Piv = CC(C)(C)C(=O)*; Tfa = O=C(C(F)(F)F)*

Key:
ETB = biological target: T1, ETB (Rattus norvegicus, UniProt P21451); experiment: Endothelin Receptor Binding Assay-B (ETB), [125I]-ET-1 binding in rat cerebellar membranes; conditions: Table IIa; rat cerebellar membranes; read-out: Binding Assay IC50 at Receptor Subtypes ETB
T1 construct: thaw one aliquot of frozen rat cerebellar membranes; from tissue; host or cells: rat cerebellar membranes
T1 sequence (P21451 27-442): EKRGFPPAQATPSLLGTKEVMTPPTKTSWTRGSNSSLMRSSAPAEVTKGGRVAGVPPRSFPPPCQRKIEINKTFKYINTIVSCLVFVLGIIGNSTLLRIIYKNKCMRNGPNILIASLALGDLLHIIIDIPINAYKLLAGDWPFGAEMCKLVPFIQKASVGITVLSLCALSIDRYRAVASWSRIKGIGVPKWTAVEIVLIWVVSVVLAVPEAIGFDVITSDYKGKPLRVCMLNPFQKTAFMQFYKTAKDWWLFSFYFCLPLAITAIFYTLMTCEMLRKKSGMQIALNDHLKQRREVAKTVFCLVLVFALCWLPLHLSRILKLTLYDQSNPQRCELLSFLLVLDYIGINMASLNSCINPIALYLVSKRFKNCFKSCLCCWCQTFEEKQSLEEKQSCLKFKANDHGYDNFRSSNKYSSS
Description: The tissue is made up of 20 mM tris(hydroxymethyl)aminomethane hydrochloride (Trizma) buffer, 2 mM ethylenediaminetetraacetate, 100 μM phenylmethylsulfonyl fluoride.
First, thaw one aliquot of frozen rat cerebellar membranes (2 mg protein in 0.5 mL). Next, add 0.5 mL membrane aliquot to 4.5 mL cold tissue buffer, polytron at 7,500 revolutions per minute for 10 seconds. Finally, dilute tissue suspension 1/100 (0.1 mL suspension+9.9 mL tissue buffer), polytron again, and place ice.
Mix in 150 μL of tissue to each tube, vortex briefly, then tap to force all liquids to bottom (total assay volume=250 μL). Then place the tubes in a 37° C. water bath for 2 hours.
Add 2.5 mL cold water buffer (50 mM Trizma buffer) to each tube, filter, and then wash tube with additional 2.5 mL wash buffer and add to filter. Finally, wash filters with an additional 2.5 mL of cold wash buffer.
Count filters for radioactivity in gamma counter.

ETA = biological target: T2, ETA (Oryctolagus cuniculus, UniProt A5A8K3); experiment: Endothelin Receptor Binding Assay-A (ETA), intact cell binding of [125I]-ET-1; design: species or system rabbit; conditions: Table IIa; rabbit renal artery vascular smooth muscle cells; read-out: Binding Assay IC50 at Receptor Subtypes ETA
T2 construct: The cells used were rabbit renal artery vascular smooth muscle cells; endogenous in cells; host or cells: rabbit renal artery vascular smooth muscle cells
T2 sequence (A5A8K3 21-427): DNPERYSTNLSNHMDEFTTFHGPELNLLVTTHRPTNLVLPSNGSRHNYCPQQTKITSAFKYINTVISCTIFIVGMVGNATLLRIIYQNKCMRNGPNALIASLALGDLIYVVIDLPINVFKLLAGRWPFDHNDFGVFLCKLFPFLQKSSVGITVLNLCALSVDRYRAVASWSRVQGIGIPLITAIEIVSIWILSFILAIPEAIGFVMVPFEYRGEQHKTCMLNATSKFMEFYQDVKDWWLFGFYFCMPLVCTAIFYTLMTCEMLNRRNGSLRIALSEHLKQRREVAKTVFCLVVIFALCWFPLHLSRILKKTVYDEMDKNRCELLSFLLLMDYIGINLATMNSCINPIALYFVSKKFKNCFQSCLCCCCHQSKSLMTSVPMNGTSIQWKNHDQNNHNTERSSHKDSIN
Description: The cells used were rabbit renal artery vascular smooth muscle cells grown in a 48-well dish (1 cm^2) (confluent cells).
The growth media was Dulbeccos Modified Eagles/Ham's F12 which contained 10 fetal bovine serum and antibiotics (penicillin/streptomycin/fungizone).
Second, remove the assay buffers, place the dish on ice, and add 150 μL of cold assay buffer described above to each well. […] Next, place dish in a 37° C. water bath for about 2 hours and gently agitate the dish every 15 minutes. Discard the radioactive incubation mixture in the sink and wash wells 3 times with 1 mL of cold phosphate buffered saline. Last, add […] of 0.25M sodium hydroxide, agitate for 1 hour on rotator, and then transfer the sodium hydroxide extract to gamma counting tubes and count the radioactivity.

Row | SMILES | IC50 (ETB) | IC50 (ETA)
1 | CC[C@H](C)[C@H](NC(=O)[C@H](CC(=O)O)NC(=O)[C@H](CC(C)C)NC(=O)[C@H](NC(=O)C(C)(C)C)C(c1ccccc1)c1ccccc1)C(=O)N[C@H](C(=O)N[C@@H](Cc1c[nH]c2ccccc12)C(=O)O)[C@@H](C)CC [Example 38, tBu--D--Dip--Leu--Asp--Ile--Ile--Trp] (Piv-[dDip]LDIIW-OH) | 500 nM | 10000 nM
2 | CC[C@H](C)[C@H](NC(=O)[C@H](CC(=O)O)NC(=O)[C@H](CC(C)C)NC(=O)[C@@H](Cc1c(C)c(C)c(C)c(C)c1C)NC(C)=O)C(=O)N[C@H](C(=O)N[C@@H](Cc1c[nH]c2ccccc12)C(=O)O)[C@@H](C)CC [Example 53, Ac--D--Pmp--Leu--Asp--Ile--Ile--Trp] (Ac-[X3]LDIIW-OH) | 5500 nM | 1500 nM
3 | CC[C@H](C)[C@H](NC(=O)[C@H](CC(=O)O)NC(=O)[C@H](CC(C)C)NC(=O)[C@H](NC(C)=O)C(c1ccccc1)c1ccccc1)C(=O)N[C@H](C(=O)N[C@@H](Cc1c[nH]c2ccccc12)C(N)=O)[C@@H](C)CC [Example 24, Ac--D--Dip--Leu--Asp--Ile--Ile--Trp--NH2] (Ac-[dDip]LDIIW-NH2) | 5000 nM | 320 nM
4 | CC[C@H](C)[C@H](NC(=O)[C@H](CC(=O)O)NC(=O)[C@H](C)NC(=O)[C@@H](Cc1ccccc1)NC(C)=O)C(=O)N[C@H](C(=O)N[C@@H](Cc1c[nH]c2ccccc12)C(=O)O)[C@@H](C)CC [Example 59, Ac--D--Phe--Ala--Asp--Ile--Ile--Trp] (Ac-[dF]ADIIW-OH) | 300 nM | 400 nM
5 | CC[C@H](C)[C@H](NC(=O)[C@H](CC(=O)O)NC(=O)[C@H](CCC(=O)O)NC(=O)[C@@H](Cc1ccccc1)NC(C)=O)C(=O)N[C@H](C(=O)N[C@@H](Cc1c[nH]c2ccccc12)C(=O)O)[C@@H](C)CC [Example 9, Ac--D--Phe--Glu--Asp--Ile--Ile--Trp] (Ac-[dF]EDIIW-OH) | 1300 nM | 650 nM
6 | CC[C@H](C)[C@H](NC(=O)[C@H](CC(=O)O)NC(=O)[C@H](CC(C)C)NC(=O)[C@H](NC(=O)Cc1cccnc1)C(c1ccccc1)c1ccccc1)C(=O)N[C@H](C(=O)N[C@@H](Cc1c[nH]c2ccccc12)C(=O)O)[C@@H](C)CC [Example 33, Pya--D--Dip--Leu--Asp--Ile--Ile--Trp] ({Acetyl(3-pyridyl)}-[dDip]LDIIW-OH) | 180 nM | 5000 nM
7 | CC[C@H](C)[C@H](NC(=O)[C@H](CC(=O)O)NC(=O)[C@H](CC(C)C)NC(=O)[C@H](NC(=O)C(F)(F)F)C(c1ccccc1)c1ccccc1)C(=O)N[C@H](C(=O)N[C@@H](Cc1c[nH]c2ccccc12)C(=O)O)[C@@H](C)CC [Example 39, CF3 CO--D--Dip--Leu--Asp--Ile--Ile--Trp] (Tfa-[dDip]LDIIW-OH) | 900 nM | 250 nM
8 | CC[C@H](C)[C@H](NC(=O)[C@H](CCC(=O)O)NC(=O)[C@H](CC(=O)O)NC(=O)[C@H](CC(C)C)NC(=O)[C@H](NC(C)=O)C(c1ccccc1)c1ccccc1)C(=O)N[C@@H](Cc1c[nH]c2ccccc12)C(=O)O [Example 19, Ac--D--Dip--Leu--Asp--Glu--Ile--Trp] (Ac-[dDip]LDEIW-OH) | 6000 nM | 1000 nM
9 | CC[C@H](C)[C@H](NC(=O)[C@H](CC(=O)O)NC(=O)[C@H](CC(C)C)NC(=O)[C@H](N)Cc1c2ccccc2cc2ccccc12)C(=O)N[C@H](C(=O)N[C@@H](Cc1c[nH]c2ccccc12)C(=O)O)[C@@H](C)CC [Example 54, D--Ana--Leu--Asp--Ile--Ile--Trp] (H-[X2]LDIIW-OH) | 1210 nM | 5860 nM
10 | CC[C@H](C)[C@H](NC(=O)[C@H](CC(N)=O)NC(=O)[C@H](CC(C)C)NC(=O)[C@H](N)C(c1ccccc1)c1ccccc1)C(=O)N[C@H](C(=O)N[C@@H](Cc1c[nH]c2ccccc12)C(=O)O)[C@@H](C)CC [Example 70, D--Dip--Leu--Asn--Ile--Ile--Trp] (H-[dDip]LNIIW-OH) | 833 nM | 6430 nM
11 | CC[C@H](C)[C@H](NC(=O)[C@H](CC(=O)O)NC(=O)[C@H](CC(C)C)NC(=O)[C@H](NC(=O)OCC1c2ccccc2-c2ccccc21)C(c1ccccc1)c1ccccc1)C(=O)N[C@H](C(=O)N[C@@H](Cc1c[nH]c2ccccc12)C(=O)O)[C@@H](C)CC [Example 30, Fmoc--D--Dip--Leu--Asp--Ile--Ile--Trp] (Fmoc-[dDip]LDIIW-OH) | 6000 nM | 6000 nM
12 | CC[C@H](C)[C@H](NC(=O)[C@H](CC(=O)O)NC(=O)[C@H](CC(C)C)NC(=O)[C@@H](Cc1cccc2ccccc12)NC(C)=O)C(=O)N[C@H](C(=O)N[C@@H](Cc1c[nH]c2ccccc12)C(=O)O)[C@@H](C)CC [Example 45, Ac-1-D--Nal--Leu--Asp--Ile--Ile--Trp] (Ac-[d1Nal]LDIIW-OH) | 450 nM | 300 nM
13 | CC[C@H](C)[C@H](NC(=O)[C@H](CC(=O)O)NC(=O)[C@H](CC(C)C)NC(=O)[C@H](NC(=O)CC12CC3CC(CC(C3)C1)C2)C(c1ccccc1)c1ccccc1)C(=O)N[C@H](C(=O)N[C@@H](Cc1c[nH]c2ccccc12)C(=O)O)[C@@H](C)CC [Example 35, Ada--D--Dip--Leu--Asp--Ile--Ile--Trp] ({Acetyl(1-adamantyl)}-[dDip]LDIIW-OH) | 500 nM | 4000 nM
14 | CC[C@H](C)[C@H](NC(=O)[C@H](CC(=O)O)NC(=O)[C@H](CC(C)C)NC(=O)[C@H](NC(=O)NC)C(c1ccccc1)c1ccccc1)C(=O)N[C@H](C(=O)N[C@@H](Cc1c[nH]c2ccccc12)C(=O)O)[C@@H](C)CC [Example 37, Me(U) --D--Dip--Leu--Asp--Ile--Ile--Trp] ({NHMe-CO}-[dDip]LDIIW-OH) | 1500 nM | 1000 nM
15 | CC[C@H](C)[C@H](NC(=O)[C@H](C)NC(=O)[C@H](CC(=O)O)NC(=O)[C@H](CC(C)C)NC(=O)[C@@H](Cc1ccccc1)NC(C)=O)C(=O)N[C@@H](Cc1c[nH]c2ccccc12)C(=O)O [Example 73, Ac--D--Phe--Leu--Asp--Ala--Ile--Trp] (Ac-[dF]LDAIW-OH) | 330 nM | 3500 nM
16 | CC[C@H](C)[C@H](NC(=O)[C@@H](NC(=O)[C@H](CC(=O)O)NC(=O)[C@H](CC(C)C)NC(=O)[C@H](NC(C)=O)C(c1ccccc1)c1ccccc1)C(C)C)C(=O)N[C@@H](Cc1c[nH]c2ccccc12)C(=O)O [Example 81, Ac--D--Dip--Leu--Asp--Val--Ile--Trp] (Ac-[dDip]LDVIW-OH) | 80 nM | 15 nM
17 | CC[C@H](C)[C@H](NC(=O)[C@@H]1CCCN1C(=O)[C@H](CC(N)=O)NC(=O)[C@H](CC(C)C)NC(=O)[C@@H](Cc1ccccc1)NC(C)=O)C(=O)N[C@@H](Cc1c[nH]c2ccccc12)C(=O)O [Example 90, Ac--D--Phe--Leu--Asn--Pro--Ile--Trp] (Ac-[dF]LNPIW-OH) | 2800 nM | 1980 nM
18 | CC[C@H](C)[C@H](NC(=O)[C@H](CC(=O)O)NC(=O)[C@H](CC(C)C)NC(=O)[C@@H](Cc1ccccc1)NC(C)=O)C(=O)N[C@@H](C)C(=O)N[C@@H](Cc1c[nH]c2ccccc12)C(=O)O [Example 82, Ac--D--Phe--Leu--Asp--Ile--Ala--Trp] (Ac-[dF]LDIAW-OH) | > 1000 nM | 8000 nM
